Data from patent publication US6476021B1 (priority 1997, dated 2002).
Structures can show the parent of a compound that is named as a salt.

What was measured:
[1] = target: PDE type VI (Bos taurus, UniProt P11541+P23439); assay: biochemical
[2] = target: PDE type V (Canis lupus familiaris, UniProt O77746); assay: biochemical
[3] = target: PDE type III (Canis lupus familiaris, UniProt A0A8I3NYE0); conditions: read-out: Inhibition Activity IC50 Type III; PDE type III from canine aorta; 1 μM substrate
[4] = rat, in vivo, 100 mg/kg
[5] = in vivo; conditions: male, Wistar, rat, plasma, inhaled or intranasal, 0.3 mg/kg
From the text: (§1) Eight-week-old male Wistar rats were anesthetized with intraperitoneal injection of urethane at 1 g/kg. The cervical portion was incised so that the trachea was exposed, and a polyethylene tube (SP120, Natsume) was inserted into the trachea. Then, a part of the esophagus was incised and a polyethylene tube with the same diameter was inserted into postnasal cavity, the tip was closed with absorbent cotton and glue. Leak of the drug solution from the nasoplatine was avoided by closing it with synthetic glue. Drugs were dissolved in 0.1% tartaric acid solution and administered through the nostrils at 500 μl/kg with micropipette and the nostrils were rapidly closed with glue. For the control, drugs were intravenously administered to rats. Constant volume of blood was intermittently collected from the tail vein into heparinized capillary after administration, and plasma was separated by centrifugation. Constant volume of plasma was extracted with t-butyl-methyl-ether three times and the organic phase was evaporated and dissolved in the HPLC initial phase. Constant volume of the organic phase was applied to the HPLC system equipped with an ultraviolet detector, and plasma drug concentration was determined with the reverse phase column. The time to reach the maximal concentration (Tmax), the mean residence time (MRT) and the mean absorption time (MAT) were calculated from measured values.

[6] = rats
From the text: as §1

[7] = intranasal administration

PDE type VI, sequence (P11541 2-856): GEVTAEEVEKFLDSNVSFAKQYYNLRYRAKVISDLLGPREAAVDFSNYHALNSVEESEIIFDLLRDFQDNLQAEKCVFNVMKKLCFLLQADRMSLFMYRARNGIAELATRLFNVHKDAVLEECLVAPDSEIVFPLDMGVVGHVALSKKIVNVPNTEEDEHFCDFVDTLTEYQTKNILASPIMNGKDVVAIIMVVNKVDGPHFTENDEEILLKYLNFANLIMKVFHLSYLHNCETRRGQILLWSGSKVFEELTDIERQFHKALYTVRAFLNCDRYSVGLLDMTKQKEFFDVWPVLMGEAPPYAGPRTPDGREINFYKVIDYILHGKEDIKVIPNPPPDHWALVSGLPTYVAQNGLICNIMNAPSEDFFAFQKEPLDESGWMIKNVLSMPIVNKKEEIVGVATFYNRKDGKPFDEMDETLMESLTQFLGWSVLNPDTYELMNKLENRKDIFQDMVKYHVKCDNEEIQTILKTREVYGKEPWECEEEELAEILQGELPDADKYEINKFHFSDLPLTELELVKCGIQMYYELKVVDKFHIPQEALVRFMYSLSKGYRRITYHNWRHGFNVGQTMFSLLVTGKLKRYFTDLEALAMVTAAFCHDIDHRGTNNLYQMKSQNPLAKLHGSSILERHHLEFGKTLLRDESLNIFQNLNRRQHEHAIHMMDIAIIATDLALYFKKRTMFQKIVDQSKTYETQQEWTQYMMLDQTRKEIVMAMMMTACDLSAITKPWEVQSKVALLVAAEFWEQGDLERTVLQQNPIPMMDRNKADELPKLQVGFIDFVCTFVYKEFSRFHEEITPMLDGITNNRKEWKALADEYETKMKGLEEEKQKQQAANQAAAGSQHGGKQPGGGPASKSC
PDE type VI, sequence (P23439 2-850): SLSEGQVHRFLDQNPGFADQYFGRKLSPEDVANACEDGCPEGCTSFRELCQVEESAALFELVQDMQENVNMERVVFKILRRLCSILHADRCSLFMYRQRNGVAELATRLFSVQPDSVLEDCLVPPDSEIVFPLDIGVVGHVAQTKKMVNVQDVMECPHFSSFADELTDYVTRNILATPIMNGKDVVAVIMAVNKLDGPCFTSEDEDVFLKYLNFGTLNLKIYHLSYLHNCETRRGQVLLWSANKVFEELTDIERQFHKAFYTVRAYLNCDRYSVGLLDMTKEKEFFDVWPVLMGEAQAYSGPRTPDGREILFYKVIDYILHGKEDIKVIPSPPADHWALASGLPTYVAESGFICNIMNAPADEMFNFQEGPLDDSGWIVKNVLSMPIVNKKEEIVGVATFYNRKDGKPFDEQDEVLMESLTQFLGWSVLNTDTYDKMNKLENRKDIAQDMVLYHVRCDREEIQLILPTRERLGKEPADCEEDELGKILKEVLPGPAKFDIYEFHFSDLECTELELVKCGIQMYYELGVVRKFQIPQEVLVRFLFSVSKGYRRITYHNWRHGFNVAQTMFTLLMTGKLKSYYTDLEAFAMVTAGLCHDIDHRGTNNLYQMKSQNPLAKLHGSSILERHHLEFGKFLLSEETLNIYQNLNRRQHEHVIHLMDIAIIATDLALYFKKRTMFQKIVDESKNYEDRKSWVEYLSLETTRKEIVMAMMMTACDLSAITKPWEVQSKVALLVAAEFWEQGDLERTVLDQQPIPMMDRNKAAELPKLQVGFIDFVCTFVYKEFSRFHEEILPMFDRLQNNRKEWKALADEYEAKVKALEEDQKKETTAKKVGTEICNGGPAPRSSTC
PDE type III, sequence (A0A8I3NYE0 1-1135): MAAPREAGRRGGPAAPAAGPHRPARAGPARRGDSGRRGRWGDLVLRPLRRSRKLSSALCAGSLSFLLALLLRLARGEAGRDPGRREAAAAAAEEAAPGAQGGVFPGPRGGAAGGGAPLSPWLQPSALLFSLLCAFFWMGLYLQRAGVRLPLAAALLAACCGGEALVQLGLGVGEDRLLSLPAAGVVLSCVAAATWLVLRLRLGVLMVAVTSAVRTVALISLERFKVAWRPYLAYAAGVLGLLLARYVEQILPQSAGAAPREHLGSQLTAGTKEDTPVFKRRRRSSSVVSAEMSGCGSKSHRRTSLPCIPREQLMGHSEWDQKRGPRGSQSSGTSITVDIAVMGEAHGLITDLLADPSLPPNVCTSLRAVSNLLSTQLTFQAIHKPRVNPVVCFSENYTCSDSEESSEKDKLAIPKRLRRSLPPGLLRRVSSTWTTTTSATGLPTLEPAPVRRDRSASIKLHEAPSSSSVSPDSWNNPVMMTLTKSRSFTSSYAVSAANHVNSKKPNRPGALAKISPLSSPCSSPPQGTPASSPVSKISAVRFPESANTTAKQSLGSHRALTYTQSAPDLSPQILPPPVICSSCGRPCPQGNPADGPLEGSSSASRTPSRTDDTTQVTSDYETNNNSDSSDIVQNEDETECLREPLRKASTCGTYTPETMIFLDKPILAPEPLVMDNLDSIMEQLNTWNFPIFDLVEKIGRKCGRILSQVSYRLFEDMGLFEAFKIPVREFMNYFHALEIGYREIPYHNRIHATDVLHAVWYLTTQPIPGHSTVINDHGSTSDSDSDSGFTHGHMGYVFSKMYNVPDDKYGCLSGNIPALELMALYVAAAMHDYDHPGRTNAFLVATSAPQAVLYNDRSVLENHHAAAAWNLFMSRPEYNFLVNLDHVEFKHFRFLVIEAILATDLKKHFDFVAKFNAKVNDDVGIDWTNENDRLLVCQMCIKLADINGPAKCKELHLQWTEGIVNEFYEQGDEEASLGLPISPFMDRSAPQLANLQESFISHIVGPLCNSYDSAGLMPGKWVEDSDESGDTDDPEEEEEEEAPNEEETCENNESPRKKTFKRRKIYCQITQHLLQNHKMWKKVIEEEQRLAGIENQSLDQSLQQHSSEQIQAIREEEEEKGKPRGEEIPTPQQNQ

Compound: CC(C)N(CCOc1cc2c3c(c1)c(=O)c(Cc1cccnc1)cn3-c1cc(Br)ccc1S2)C(C)C [Example 51]
- IC50 [1]: 0.18 µM
- IC50 [2]: 0.011 µM

Compound: COc1cc2c3c(c1)c(=O)c(Cc1cccnc1)cn3-c1cc(Br)ccc1S2
- melting point: 185.7 to 187.4 °C

Compound: O=c1c(Cc2cccnc2)cn2c3cc(Br)ccc3c(=O)c3cc(O)cc1c32
- melting point: > 300 °C

Compound: O=c1c(Cc2ccccc2)cn2c3c(cc(O)cc13)Sc1ccc(Br)cc1-2
- melting point: 268.1 to 274.3 °C

Compound: O=c1ccn2c3ccc(Cl)cc3c3cncc1c32
- melting point: 280 °C (dec.)

Compound: Cc1cn2c3c(cc(O)cc3c1=O)Sc1ccc(Br)cc1-2
- melting point: > 300 °C

Compound: O=c1ccn2c3cnccc3c3cccc1c32
- melting point: 211.3 °C (dec.)

Compound: O=c1c(Cc2cccnc2)cn2c3c(cc(OCc4ccccn4)cc13)Sc1ccc(Br)cc1-2 [Example 44, 10-bromo-2-(3-pyridylmethyl)-5-(2-pyridylmethyloxy)-3H-pyrido[3,2,1-kl]phenothiazin-3-one]
- melting point: 94.6 to 96.4 °C

Compound: COc1cc2c3c(c1)c(=O)c(Cc1cncnc1)cn3-c1cc(Br)ccc1S2
- melting point: 206.6 to 210.7 °C

Compound: COc1cc2c3c(c1)c(=O)c(C)cn3-c1cc(Br)ccc1S2
- melting point: 231.7 to 233.7 °C

Compound: COc1cc2c3c(c1)c(=O)c(Cc1cccnc1)cn3-c1cc(Br)ccc1O2
- melting point: 277.1 to 280.3 °C

Compound: COc1cc2c3c(c1)c(=O)c(Cc1ccccc1)cn3-c1cc(Br)ccc1S2
- melting point: 218.1 to 219.3 °C

Compound: CCCc1nn(C)c2c(=O)[nH]c(-c3cc(S(=O)(=O)N4CCN(C)CC4)ccc3OCC)nc12 [Sildenafil, 5-[2-ethoxy-5-(4-methylpiperazin-1-ylsulphonyl)phenyl]-1-methyl-3-propyl-6,7-dihydro-1H-pyrazolo[4,3-d]pyrimidin-7-one citrate]
- IC50 [3]: 13 µM

Compound: CN1c2ccccc2-n2ccc(=O)c3cccc1c32
- melting point: 232.8 to 234.5 °C

Compound: O=c1c(Cc2ccccc2)cn2c3c(cc(OCCCO)cc13)Sc1ccc(Br)cc1-2
- melting point: 152 to 168.3 °C

Compound: O=c1ccn2c3c(cc(Cl)cc13)Sc1cc(Cl)ccc1-2
- melting point: > 300 °C

Compound: O=c1c(Cc2cccnc2)cn2c3c(cc(OCCN4CCCCC4)cc13)Sc1ccc(Br)cc1-2 [Example 50]
- melting point: 166.5 to 169 °C

Compound: O=c1c(Cc2cccnc2)cn2c3c(cc(O)cc13)Sc1ccc(Br)cc1-2
- melting point: 297.4 °C (dec.)

Compound: CN(C)CCCOc1cc2c3c(c1)c(=O)c(Cc1cccnc1)cn3-c1cc(Br)ccc1S2
- melting point: 160.3 to 163.3 °C

Compound: O=c1c(Cc2cccnc2)cn2c3c(cccc13)Oc1ccccc1-2 [Example 4, 2-(3-pyridylmethyl)-3H-pyrido[3,2,1-kl]phenoxazin-3-one]
- body weights and general symptoms [4]: nothing abnormal
- death of animals until the next day after the end of administration [4]: none of the animals were found to be dead

Compound: COc1cc2c3c(c1)c(=O)c(Cc1cccnc1)cn3-c1ccc(Br)cc1S2
- melting point: 137.3 to 138.1 °C

Compound: COc1cc2c(=O)c(Cc3cccnc3)cn3c4cc(Br)ccc4c(=O)c(c1)c23
- melting point: 247.5 to 251.1 °C

Compound: O=c1c(Cc2cccnc2)cn2c3c(cc(OCCCO)cc13)Sc1cc(Br)ccc1-2
- melting point: 215.7 to 218.4 °C

Compound: O=c1c(Cc2cccnc2)cn2c3c(cc(OCc4ccncc4)cc13)Sc1ccc(Br)cc1-2 [Example 43, 10-bromo-2-(3-pyridylmethyl)-5-(4-pyridylmethyloxy)-3H-pyrido[3,2,1-kl]phenothiazin-3-one]
- IC50 [1]: 0.036 µM
- melting point: 194.2 to 196.1 °C
- IC50 [2]: 0.0028 µM

Compound: O=c1c(Cc2cccnc2)cn2c3c(cc(OCCCO)cc13)Sc1ccc(Br)cc1-2
- melting point: 189.1 to 191.3 °C

Compound: CS(=O)(=O)O.CS(=O)(=O)O.O=c1c(Cc2cccnc2)cn2c3c(cc(OCc4cccnc4)cc13)Sc1ccc(Br)cc1-2 [Example 81, 10-bromo-2-(3-pyridylmethyl)-5-(3-pyridylmethyloxy)-3H-pyrido[3,2,1-kl]phenothiazin-3-one dimethanesulfonate]
- melting point: 238.7 to 242.3 °C
- MRT [5]: 48 to 60 min
- Tmax [5]: 12 to 30 min
- absorption by intranasal administration [6]: rapid and effective absorption
- Tmax and MRT in comparison with oral administration ([6]; intranasal administration): shortened
- duration ([6]; intranasal administration): proper duration
- first-pass effect ([6]; intranasal administration): no first-pass effect
- MAT ([6]; intranasal administration, dose 0.3 mg/kg): 0.2 ˜ 0.3 hr

Compound: O=c1c(Cc2cccnc2)cn2c3c(cc(OCc4cccnc4)cc13)Sc1ccc(Br)cc1-2 [Example 39, 10-bromo-2-(3-pyridylmethyl)-5-(3-pyridylmethyloxy)-3H-pyrido[3,2,1-kl]phenothiazin-3-one]
- IC50 [1]: 0.061 µM
- melting point: 170.8 to 172.1 °C
- IC50 [2]: 0.0038 µM
- abnormalities in nasal mucosa during the experimental period [7]: no abnormalities
- irritativeness from the observation at drug administration [7]: no irritativeness

Compound: CC(=O)N1c2ccccc2-n2ccc(=O)c3cccc1c32
- melting point: 275 °C (dec.)

Compound: O=c1c(Cc2cccnc2)cn2c3cc(Br)ccc3c(=O)c3cc(OCc4cccnc4)cc1c32 [Example 35, 10-bromo-2-(3-pyridylmethyl)-5-(3-pyridylmethyloxy)-3H,7H-pyrido[3,2,1-de]acridin-3,7-dione]
- IC50 [1]: 0.015 µM
- melting point: 262.4 to 264.6 °C
- IC50 [2]: 0.0018 µM

Compound: O=c1c(Cc2cccnc2)cn2c3cc(Br)ccc3c(=O)c3cc(OCCCO)cc1c32 [Example 34, 10-bromo-5-(3-hydroxypropyloxy)-2-(3-pyridylmethyl)-3H,7H-pyrido[3,2,1-de]acridin-3,7-dione]
- melting point: 165 °C (dec.)

Compound: Cc1cn2c3c(cc(OCCCO)cc3c1=O)Sc1ccc(Br)cc1-2
- melting point: 188.9 to 197.8 °C

Compound: O=c1ccn2c3c(cccc13)Nc1ccccc1-2 [Example 14, 3H,7H-pyrido[3,2,1-depphenazin-3-one]
- body weights and general symptoms [4]: nothing abnormal
- death of animals until the next day after the end of administration [4]: none of the animals were found to be dead

Compound: O=c1ccn2c3c(cc(Cl)cc13)Oc1cc(Cl)ccc1-2
- melting point: > 300 °C

Compound: O=c1c(Cc2cccnc2)cn2c3ccccc3c(=O)c3cccc1c32 [Example 18, 2-(3-pyridylmethyl)-3H,7H-pyrido[3,2,1-de]acridin-3,7-dione]
- body weights and general symptoms [4]: nothing abnormal
- death of animals until the next day after the end of administration [4]: none of the animals were found to be dead

Compound: CC(=O)N1c2ccccc2-n2cc(Cc3ccccc3)c(=O)c3cccc1c32 [Example 10, 7-acetyl-2-benzyl-3H,7H-pyrido[3,2,1-de]phenazin-3-one]
- body weights and general symptoms [4]: nothing abnormal
- death of animals until the next day after the end of administration [4]: none of the animals were found to be dead
